Laboratory results: patent US20060014938A1, “Stable aqueous colloidal lanthanide oxides” (priority 2004, published 2006)

Assays:
[1] = test system: pig mesenchymal stem cells (MSC); experiment: Cell viability test; format: cell-based
Procedure: FIG. 1 is a set of photomicrographs showing results from a cell viability test using Pig MSCs.
In all experiments colloid was incubated with cells in growth medium for 12 hours (at a concentration of 1 mg Eu/mL) which was then washed away.

[2] = Size and aqueous stability of colloid after crosslinking or surface modification; format: physicochemical
Procedure: The dextran covered lanthanide colloid was prepared according to Example 6 except that lanthanum chloride was substituted for samarium chloride. In a fume hood, to 40 mL of colloid was added 100 mL of 5M NaOH, 40 mL distilled water and 40 mL epichlorohydrin. The mixture was incubated at room temperature for about 24 hours with shaking to promote interaction of the organic phase (epichlorohydrin) and aqueous phase which includes the dextran covered colloid. Epichlorohydrin was removed by placing the colloid in a dialysis bag and dialyzing against 20 changes of distilled water of 20 liters each. After dialysis, the product was filtered through a 0.2 micron filter and stored at 4° C. The size and aqueous stability of the colloid suspension were unaffected by this treatment.
The reduced dextran covered colloid was prepared essentially according to Example 10 except that lutetium chloride was substituted for gadolinium chloride. In a fume hood, to 40 mL of colloid was added 100 mL of 5M NaOH, 40 mL of distilled water and 40 mL of epichlorohydrin. The mixture was incubated at room temperature for about 24 hours with shaking to promote interaction of the organic phase (epichlorohydrin) and aqueous phase which includes the dextran covered colloid. Epichlorohydrin was removed by placing the colloid in a dialysis bag and dialyzing against 5 changes of distilled water of 4 liters each. […]

[3] = From the text: Table 1 summarizes characteristics of gadolinium DTPA (a previously described MRI contrast agent) and of compositions that are gadolinium oxide complexed with reduced dextran as provided herein, comparing characteristics of these to an ideal vascular contrast agent.
[4] = MRI of tubes using a T1 pulse sequence; settings: 1.0 and 0.1 nM Gd, same molar concentrations
Procedure: Colloidal gadolinium Oxide prepared according to Example 9, and Gadolinium DTPA, each at a concentration of each of 1.0 and 0.1 nM Gd, were added to a volume of 1 mL in a 2 mL screw cap plastic tube, and were subjected to MRI using a T1 pulse sequence.
Row 3 is water, a negative control.

mice = settings: cited from earlier work

Compound: C[CH2][Hg][S]c1ccccc1C(=O)[O-].[Na+] [thimerasol]
- state of cells (FIG. 1 Panel C) ([1]; added to growth medium, after 24 hours): severe deterioration
- time to cell death ([1]; positive control): less than 24 hours

Compound: Gadolinium Oxide Colloid Modified with Biotin [Example 22]
- size and aqueous stability of the colloid suspension after the treatment [2]: unaffected

Compound: O=C([O-])CN(CCN(CC(=O)[O-])CC(=O)[O-])CCN(CC(=O)[O-])CC(=O)[O-].[Gd+3] [Gadolinium DTPA]
- Autoclavable without excipients [3]: Yes
- Non toxic at vast excess [3]: Yes
- potency as contrast agent (T1 weighted image) [4]: equally potent

Compound: [Cl][Gd]([Cl])[Cl] [gadolinium chloride]
- most common lesions after injection (mice): mineral emboli in capillaries, accumulation of mineral in the mononuclear phagocytic system, hepatocellular necrosis, and lymphoid depletion, necrosis and mineralisation in the spleen
